Measurements taken from patent US20240270762A1, “PENICILLIN-BINDING PROTEIN INHIBITORS” (priority 2021, published 2024).
≈ marks a conversion by molar mass, not a printed value.

Key:
A. baumannii CDC-0036 = assay: microbe, parasite or virus in culture; format: cell-based; settings: Acinetobacter baumannii, CDC0036, read-out: MIC, A. baumannii CDC-0036
N. gonorrhoeae MS11 = assay: Liquid broth MIC in Fastidious broth; settings: Neisseria gonorrhoeae, MS11, read-out: Minimum Inhibitory Concentration, MS11
P. aeruginosa ATCC 35151 = assay: microbe, parasite or virus in culture; format: cell-based; settings: Pseudomonas aeruginosa, ATCC35151, read-out: Minimum inhibitory concentration, P. aeruginosa ATCC 35151
N. gonorrhoeae FA1090 = assay: Liquid broth MIC in Fastidious broth; settings: Neisseria gonorrhoeae, FA1090, read-out: Minimum Inhibitory Concentration, FA 1090
N. gonorrhoeae WHO Q = assay: Liquid broth MIC in Fastidious broth; settings: Neisseria gonorrhoeae, read-out: Minimum Inhibitory Concentration, WHO Q
A. baumannii CDC-0045 = assay: microbe, parasite or virus in culture; format: cell-based; settings: Acinetobacter baumannii, CDC0045, read-out: MIC, A. baumannii CDC-0045
N. gonorrhoeae WHO Z = assay: Liquid broth MIC in Fastidious broth; settings: Neisseria gonorrhoeae, read-out: Minimum Inhibitory Concentration, WHO Z
N. gonorrhoeae WHO M = assay: Liquid broth MIC in Fastidious broth; settings: Neisseria gonorrhoeae, read-out: Minimum Inhibitory Concentration, WHO M
A. baumannii 1258916 = assay: microbe, parasite or virus in culture; format: cell-based, Acinetobacter baumannii; settings: Acinetobacter baumannii, 1258916, read-out: MIC, A. baumannii 1258916
[1] = tested on: P. aeruginosa (ΔmexAB-oprM); assay: Broth microdilution MIC in iron-depleted CAMHB (IDM); format: cell-based; settings: Pseudomonas aeruginosa; iron-depleted CAMHB (IDM); […]; read-out: Minimum inhibitory concentration, P. aeruginosa ΔmexAB-oprM
A. baumannii ATCC 19606 = assay: microbe, parasite or virus in culture; format: cell-based; settings: Acinetobacter baumannii, ATCC19606, read-out: MIC, A. baumannii ATCC 19606
N. gonorrhoeae WHO K = assay: Liquid broth MIC in Fastidious broth; settings: Neisseria gonorrhoeae, read-out: Minimum Inhibitory Concentration, WHO K
N. gonorrhoeae WHO L = assay: Liquid broth MIC in Fastidious broth; settings: Neisseria gonorrhoeae, read-out: Minimum Inhibitory Concentration, WHO L
Experimental: Liquid broth-based assays were used for antibacterial testing of PBP inhibitors in Neisseria gonorrhoeae. Briefly, cryo-preserved bacterial cultures of clinical strains were streaked for isolation on Chocolate Agar (72 g/L (2×) GC Agar Base (BD #228950) and 2% (2×) Hemoglobin was autoclaved at 121° C. for 20 minutes to sterilize. Once cooled to ˜50° C. the 2×GC Agar Base and 2× Hemoglobin solutions are combined and 1% IsoVitaleX Enrichment (BD #211876) was added to the solution). Strains were incubated at 36° C. and 5% CO2 to allow growth of colonies, 24 hours before inoculum preparation. 2-fold serial dilutions of test compounds were conducted in a 96 well plate with a final volume of 75 μL per well at 2-fold the final desired concentration in Fastidious broth (Remel #R07664). For preparation of assay inoculum, a direct suspension was prepared by aseptically swabbing 10-15 colonies from agar plates into culture tubes containing 2 mL of fresh sterile saline. After the dilution plates were set up, direct suspensions were then diluted in a cuvette containing sterile saline and the optical density was measured at 600 nm. Inocula were diluted such that 75 μL of this culture in Fastidious broth results in a starting bacterial concentration of 5×10^5 CFU/mL when added to the dilution plates. The plates were incubated for ˜24 hours at 36° C. and 5% CO2.

| Compound | MIC (A. baumannii CDC-0036) [µg/mL] | MIC (N. gonorrhoeae MS11) [µg/mL] | MIC (P. aeruginosa ATCC 35151) [µg/mL] | MIC (N. gonorrhoeae FA1090) [µg/mL] | MIC (N. gonorrhoeae WHO Q) [µg/mL] | MIC (A. baumannii CDC-0045) [µg/mL] | MIC (N. gonorrhoeae WHO Z) [µg/mL] | MIC (N. gonorrhoeae WHO M) [µg/mL] | MIC (A. baumannii 1258916) [µg/mL] | MIC [1] [µg/mL] | MIC (A. baumannii ATCC 19606) [µg/mL] | MIC (N. gonorrhoeae WHO K) [µg/mL] | MIC (N. gonorrhoeae WHO L) [µg/mL] |
| --- | --- | --- | --- | --- | --- | --- | --- | --- | --- | --- | --- | --- | --- |
| O=C(NCCCN1CCN(C(=O)N[C@@H](C(=O)N[C@H]2Cc3ccc(F)c(C(=O)O)c3OB2O)c2cc(F)c(O)c(O)c2Cl)C1=O)Nc1cccc(O)c1 [Example 258, (R)-3-((R)-2-(2-chloro-5-fluoro-3,4-dihydroxyphenyl)-2-(3-(3-(3-(3-hydroxyphenyl)ureido)propyl)-2-oxoimidazolidine-1-carboxamido)acetamido)-7-fluoro-2-hydroxy-3,4-dihydro-2H-benzo[e][1,2]oxaborinine-8-carboxylic acid] | < 1 | 16 to 32 (≈ 21.4 to 42.8 µM) | < 1 | 1 to 2 (≈ 1.34 to 2.68 µM) | 16 to 32 (≈ 21.4 to 42.8 µM) | < 1 | 4 to 8 (≈ 5.36 to 10.7 µM) | 4 to 8 (≈ 5.36 to 10.7 µM) | < 1 | < 1 | < 1 | > 64 | > 64 |
| O=C(NCCCN1CCN(C(=O)NC(C(=O)N[C@H]2Cc3ccc(F)c(C(=O)O)c3OB2O)c2cc(F)c(O)c(O)c2Cl)C1=O)Nc1cccnc1 (stereo partly drawn) [Example 259, (3R)-3-(2-(2-chloro-5-fluoro-3,4-dihydroxyphenyl)-2-(2-oxo-3-(3-(3-(pyridin-3-yl)ureido)propyl)imidazolidine-1-carboxamido)acetamido)-7-fluoro-2-hydroxy-3,4-dihydro-2H-benzo[e][1,2]oxaborinine-8-carboxylic acid] | < 1 | 16 to 32 (≈ 21.9 to 43.7 µM) | < 1 | 1 to 2 (≈ 1.37 to 2.73 µM) | 16 to 32 (≈ 21.9 to 43.7 µM) | < 1 | 16 to 32 (≈ 21.9 to 43.7 µM) | 4 to 8 (≈ 5.47 to 10.9 µM) | < 1 | < 1 | < 1 | > 64 | > 64 |
| O=C(NCCS(=O)(=O)N1CCN(C(=O)NC(C(=O)N[C@H]2Cc3ccc(F)c(C(=O)O)c3OB2O)c2cc(F)c(O)c(O)c2Cl)C1=O)c1ccccc1 (stereo partly drawn) [Example 260, (3R)-3-(2-(3-((2-benzamidoethyl)sulfonyl)-2-oxoimidazolidine-1-carboxamido)-2-(2-chloro-5-fluoro-3,4-dihydroxyphenyl)acetamido)-7-fluoro-2-hydroxy-3,4-dihydro-2H-benzo[e][1,2]oxaborinine-8-carboxylic acid] | 2 to 4 (≈ 2.61 to 5.22 µM) | 16 to 32 (≈ 20.9 to 41.8 µM) | < 1 | 4 to 8 (≈ 5.22 to 10.4 µM) | 16 to 32 (≈ 20.9 to 41.8 µM) | < 1 | 16 to 32 (≈ 20.9 to 41.8 µM) | 16 to 32 (≈ 20.9 to 41.8 µM) | < 1 | < 1 | < 1 | > 64 | > 64 |
| O=C(NCCS(=O)(=O)N1CCN(C(=O)NC(C(=O)N[C@H]2Cc3ccc(F)c(C(=O)O)c3OB2O)c2cc(F)c(O)c(O)c2Cl)C1=O)c1cccc(O)c1 (stereo partly drawn) [Example 261, (3R)-3-(2-(2-chloro-5-fluoro-3,4-dihydroxyphenyl)-2-(3-((2-(3-hydroxybenzamido)ethyl)sulfonyl)-2-oxoimidazolidine-1-carboxamido)acetamido)-7-fluoro-2-hydroxy-3,4-dihydro-2H-benzo[e][1,2]oxaborinine-8-carboxylic acid] | 2 to 4 (≈ 2.56 to 5.12 µM) | 16 to 32 (≈ 20.5 to 40.9 µM) | < 1 | 4 to 8 (≈ 5.12 to 10.2 µM) | 16 to 32 (≈ 20.5 to 40.9 µM) | < 1 | 4 to 8 (≈ 5.12 to 10.2 µM) | 4 to 8 (≈ 5.12 to 10.2 µM) | < 1 | < 1 | < 1 | > 64 | > 64 |
| O=C(NCCS(=O)(=O)N1CCN(C(=O)NC(C(=O)N[C@H]2Cc3ccc(F)c(C(=O)O)c3OB2O)c2cc(F)c(O)c(O)c2Cl)C1=O)c1cccnc1 (stereo partly drawn) [Example 262, (3R)-3-(2-(2-chloro-5-fluoro-3,4-dihydroxyphenyl)-2-(3-((2-(nicotinamido)ethyl)sulfonyl)-2-oxoimidazolidine-1-carboxamido)acetamido)-7-fluoro-2-hydroxy-3,4-dihydro-2H-benzo[e][1,2]oxaborinine-8-carboxylic acid] | < 1 | 16 to 32 (≈ 20.9 to 41.7 µM) | < 1 | 4 to 8 (≈ 5.22 to 10.4 µM) | 16 to 32 (≈ 20.9 to 41.7 µM) | < 1 | 16 to 32 (≈ 20.9 to 41.7 µM) | 16 to 32 (≈ 20.9 to 41.7 µM) | < 1 | < 1 | < 1 | > 64 | > 64 |
| O=C(NCCS(=O)(=O)N1CCN(C(=O)N[C@H](C(=O)N[C@H]2Cc3ccc(F)c(C(=O)O)c3OB2O)c2cc(F)c(O)c(O)c2Cl)C1=O)c1nccs1 [Example 263, (R)-3-((S)-2-(2-chloro-5-fluoro-3,4-dihydroxyphenyl)-2-(2-oxo-3-((2-(thiazole-2-carboxamido)ethyl)sulfonyl)imidazolidine-1-carboxamido)acetamido)-7-fluoro-2-hydroxy-3,4-dihydro-2H-benzo[e][1,2]oxaborinine-8-carboxylic acid] | 32 to 64 (≈ 41.4 to 82.8 µM) | > 64 | 2 to 4 (≈ 2.59 to 5.18 µM) | > 64 | > 64 | 32 to 64 (≈ 41.4 to 82.8 µM) | > 64 | > 64 | 32 to 64 (≈ 41.4 to 82.8 µM) | 8 to 16 (≈ 10.4 to 20.7 µM) | 8 to 16 (≈ 10.4 to 20.7 µM) | > 64 | > 64 |
| O=C(NCCS(=O)(=O)N1CCN(C(=O)N[C@@H](C(=O)N[C@H]2Cc3ccc(F)c(C(=O)O)c3OB2O)c2cc(F)c(O)c(O)c2Cl)C1=O)c1nccs1 [Example 264, (R)-3-((R)-2-(2-chloro-5-fluoro-3,4-dihydroxyphenyl)-2-(2-oxo-3-((2-(thiazole-2-carboxamido)ethyl)sulfonyl)imidazolidine-1-carboxamido)acetamido)-7-fluoro-2-hydroxy-3,4-dihydro-2H-benzo[e][1,2]oxaborinine-8-carboxylic acid] | < 1 | 16 to 32 (≈ 20.7 to 41.4 µM) | < 1 | 1 to 2 (≈ 1.29 to 2.59 µM) | 16 to 32 (≈ 20.7 to 41.4 µM) | < 1 | 4 to 8 (≈ 5.18 to 10.4 µM) | 4 to 8 (≈ 5.18 to 10.4 µM) | < 1 | < 1 | < 1 | 16 to 32 (≈ 20.7 to 41.4 µM) | > 64 |
| O=C(O)c1c(F)ccc2c1OB(O)[C@@H](NC(=O)C(NC(=O)N1CCN(S(=O)(=O)CCNC(=O)[C@@H]3CCCN3)C1=O)c1cc(F)c(O)c(O)c1Cl)C2 (stereo partly drawn) [Example 265, (3R)-3-(2-(2-chloro-5-fluoro-3,4-dihydroxyphenyl)-2-(2-oxo-3-((2-((S)-pyrrolidine-2-carboxamido)ethyl)sulfonyl)imidazolidine-1-carboxamido)acetamido)-7-fluoro-2-hydroxy-3,4-dihydro-2H-benzo[e][1,2]oxaborinine-8-carboxylic acid] | 2 to 4 (≈ 2.64 to 5.27 µM) | 16 to 32 (≈ 21.1 to 42.2 µM) | < 1 | 4 to 8 (≈ 5.27 to 10.5 µM) | 16 to 32 (≈ 21.1 to 42.2 µM) | < 1 | 4 to 8 (≈ 5.27 to 10.5 µM) | 4 to 8 (≈ 5.27 to 10.5 µM) | 2 to 4 (≈ 2.64 to 5.27 µM) | < 1 | < 1 | > 64 | > 64 |
| O=C(NCCS(=O)(=O)N1CCN(C(=O)NC(C(=O)N[C@H]2Cc3ccc(F)c(C(=O)O)c3OB2O)c2cc(F)c(O)c(O)c2Cl)C1=O)Nc1cccc(O)c1 (stereo partly drawn) [Example 266, (3R)-3-(2-(2-chloro-5-fluoro-3,4-dihydroxyphenyl)-2-(3-((2-(3-(3-hydroxyphenyl)ureido)ethyl)sulfonyl)-2-oxoimidazolidine-1-carboxamido)acetamido)-7-fluoro-2-hydroxy-3,4-dihydro-2H-benzo[e][1,2]oxaborinine-8-carboxylic acid] | 2 to 4 (≈ 2.51 to 5.02 µM) | 16 to 32 (≈ 20.1 to 40.2 µM) | < 1 | 1 to 2 (≈ 1.25 to 2.51 µM) | 16 to 32 (≈ 20.1 to 40.2 µM) | < 1 | 4 to 8 (≈ 5.02 to 10 µM) | 4 to 8 (≈ 5.02 to 10 µM) | < 1 | < 1 | < 1 | 16 to 32 (≈ 20.1 to 40.2 µM) | > 64 |
| O=C(NCCS(=O)(=O)N1CCN(C(=O)N[C@@H](C(=O)N[C@H]2Cc3ccc(F)c(C(=O)O)c3OB2O)c2cc(F)c(O)c(O)c2Cl)C1=O)Nc1cccnc1 [Example 267, (R)-3-((R)-2-(2-chloro-5-fluoro-3,4-dihydroxyphenyl)-2-(2-oxo-3-((2-(3-(pyridin-3-yl)ureido)ethyl)sulfonyl)imidazolidine-1-carboxamido)acetamido)-7-fluoro-2-hydroxy-3,4-dihydro-2H-benzo[e][1,2]oxaborinine-8-carboxylic acid] | 2 to 4 (≈ 2.56 to 5.12 µM) | 16 to 32 (≈ 20.5 to 40.9 µM) | < 1 | 1 to 2 (≈ 1.28 to 2.56 µM) | 16 to 32 (≈ 20.5 to 40.9 µM) | < 1 | 4 to 8 (≈ 5.12 to 10.2 µM) | 4 to 8 (≈ 5.12 to 10.2 µM) | < 1 | < 1 | < 1 | > 64 | > 64 |
